Measured values published in PubChem BioAssay (NCI).
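Protocol summary: plate cells (96-well), add compound at 5 concentrations, incubate 48 h, interpolate endpoints linearly. GI50 marks 50% less growth. TGI marks complete inhibition of growth.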 Peptide text beside a SMILES is read from it. * marks the point of attachment. OSu = O=C1CCC(=O)N1O*; OBn = c1ccc(CO*)cc1; Bn = c1ccc(C*)cc1

What was measured:
Experiment in all cases: NCI anticancer screen, dose series, 48 h
[1] = system: ACHN renal
[2] = system: HOP-92 NSCLC
[3] = system: OVCAR-5 ovarian
[4] = system: SF-268 CNS
[5] = system: DU-145 prostate
[6] = system: OVCAR-3 ovarian
[7] = system: UACC-62 melanoma
[8] = system: SK-MEL-28 melanoma
[9] = system: HCC-2998 colon
[10] = system: HL-60(TB) leukemia

Compound	TGI [1] [µM]	TGI [2] [µM]	TGI [3] [µM]	TGI [4] [µM]	TGI [5] [µM]	TGI [6] [µM]	TGI [7] [µM]	TGI [8] [µM]	TGI [9] [µM]	TGI [10] [µM]	GI50 [1] [µM]	GI50 [2] [µM]	GI50 [9] [µM]	GI50 [3] [µM]	GI50 [10] [µM]	GI50 [4] [µM]	GI50 [7] [µM]	GI50 [8] [µM]	GI50 [5] [µM]	GI50 [6] [µM]
Cc1ccc(C2(c3ccc(C)c(O)c3C)CCN(C)CC2)c(C)c1O	> 100	> 100	> 100	> 100	> 100	> 100	> 100	> 100												
O=C1NC(=S)NC(=O)C1=Cc1ccc2ccccc2n1	> 100	> 100	> 100	> 100		> 100	> 100	> 100	> 100	> 100										
COc1ccc(N2C(=O)C3c4[nH]c5ccccc5c4C4CCC(C(C)(C)C)CC4C3C2=O)cc1OC (stereo unspecified)	46.6	44.8		38.3			> 100	> 100	> 100	> 100										
c1ccc2nn(C3CCCCO3)nc2c1 (stereo unspecified)	> 100		> 100	> 100	> 100	> 100	> 100		> 100											
COC1=C(OC)C(=O)C(Cc2c(Cl)nc3n2CCS3)=C(C)C1=O	33.2		36	41.3	40	37.2	26.4	27.2	37.6	6.4										
Cc1nn(C(=O)c2ccc(Cl)cc2)c2c1C(c1ccco1)SC(N)=N2 (stereo unspecified)	> 10	> 10	> 10	> 10	> 10	> 10	> 10	> 10	> 10	> 10										
O=C(CC(=O)Nc1ccccc1Cl)NNC(Sc1ccccc1)c1cc(N=Nc2ccc(Br)cc2)ccc1O (stereo unspecified)	> 10	6.68	> 10	> 10	> 10	2.91	3.9	> 10	> 10	1.1										
COc1cnnc2c(C)c(-c3ccccc3)nn12	> 100	> 100	> 100	> 100	> 100	> 100	> 100	> 100	> 100	> 100										
O=c1c(S(=O)(=O)Oc2ccccc2)coc2cc(F)ccc12	> 100		> 100	> 100		> 100	> 100	> 100	> 100											
COc1cc(C2c3cc4c(cc3OC(N3CCOCC3)C2C)OCO4)cc(OC)c1OC(C)=O (stereo unspecified)	> 100	> 100	> 100	> 100	> 92.5	59.4	> 84.5	> 91.6	50.5	> 59										
Cc1csc2n(C)c(=O)c3ccccc3[n+]12	> 100		> 100	> 100	> 100	> 100	> 100	> 100	> 100	> 100										
C/C(=N\NC(=O)N/N=C(\C)c1ccccn1)c1ccccn1	> 100	> 100	> 100	> 83.9	> 100	> 100	> 100	> 100	> 100	> 100										
O=C(NNCc1ccccc1O)c1ccccc1O	> 100	> 100	96.3		43.4	6.29	55.9	> 100	45.1	4.17										
CCOC(=O)CCC(NC(=O)c1ccc(NCc2ccc3nc(-c4ccccc4)c(Cl)nc3c2)c2ccccc12)C(=O)OCC (stereo unspecified)	> 100	> 100	> 100	> 100	> 100	> 100	> 100	> 100	> 100											
O=C1C(CN2CCCC2)CCCC1CN1CCCC1 (stereo unspecified)	3.42		13.2	52.3	34.2	9.62	31.9	8.94	34.3	0.445										
CC1CN=C(N(C)C(=O)Nc2ccc(Cl)c(Cl)c2)S1 (stereo unspecified)	> 100	22.9	89.9	> 100	> 100	> 100		37.9	> 100	57.1										
Cc1ccsc1/C=N/Nc1ccccn1	> 100	> 100	> 100	> 100	> 100	> 100	> 100	> 100	> 100											
Cc1nc2ccccc2cc1C[N+]12CN3CN(CN(C3)C1)C2	38.5	> 100	57.8	51	82.1	86.2	33.1	45.1	30.8											
CCOC(=O)C12C(=O)CCN1CCc1ccccc1C2C (stereo unspecified)	> 100	> 100	> 100	> 100	> 100	> 100	> 100	> 100		> 100										
CC(C)CC(NC(=O)C(N)CCC(=O)OCc1ccccc1)C(=O)NC(COCc1ccccc1)C(=O)NC(Cc1ccccc1)C(=O)ON1C(=O)CCC1=O (stereo unspecified) (H-E(OBn)LS(Bn)F-OSu; configuration not given here)	> 100	39.8	66.9	> 100	> 100		70	68.6												
CC(C)(Oc1ccc(C(=O)c2ccc(Cl)cc2)cc1Cl)C(=O)N1CCN(c2ccccc2)CC1		> 100	> 100	> 100		> 100	> 100	> 100		> 100										
COc1cc(C(CC(OC)OC)=C(C#N)C#N)cc(OC)c1OC	> 100	50	> 100	> 100		73	> 100	> 100	40.4	67.8										
S=C1CSc2c(cnc3ccccc23)N1	> 100		> 100	> 100	> 100	> 100	> 100	> 100		> 100										
COc1c(Cl)c(Cl)c(OC)c2c1C(=O)C=CC2=O	29.2	28.8	> 100	30.6		31.6	30.4	34.7	> 100	5.09										

Compound	TGI [1] [µM]	TGI [2] [µM]	TGI [3] [µM]	TGI [4] [µM]	TGI [5] [µM]	TGI [6] [µM]	TGI [7] [µM]	TGI [8] [µM]	TGI [9] [µM]	TGI [10] [µM]	GI50 [1] [µM]	GI50 [2] [µM]	GI50 [9] [µM]	GI50 [3] [µM]	GI50 [10] [µM]	GI50 [4] [µM]	GI50 [7] [µM]	GI50 [8] [µM]	GI50 [5] [µM]	GI50 [6] [µM]
Cc1cnc2[nH]c(-c3cccc(Cl)c3)cc(=O)c2c1	> 100	> 100	> 100	34.5	> 57.8	0.0755	63.5	> 100		0.609										
CC(C)(C)OC(=O)N1C/C=C\C(=O)C2(OCCO2)c2ccccc21	> 100	44.2	> 100	> 100	81.8	29.6		49.5												
CC(=O)N1C(OCc2ccccc2)CCN1c1ccccc1 (stereo unspecified)	> 10	> 10	> 10	> 10	> 10	> 10		> 10		> 10										
Cc1oc2c(C)c3oc(=O)cc(C)c3cc2c1CN	> 100		> 100	> 100		> 100	> 100	> 100	64.7	> 100										
COc1ccc(/C=C/C(c2cc(OC)c(OC)c(OC)c2)n2cncn2)cc1O (stereo unspecified)	> 100	> 100	72.6	> 100			> 100	> 100	> 100	0.0627	0.0578	67	3	4.48	0.0245	0.059	0.0476	3.62		
CCOC(=O)CN(Cc1ccccc1)Cc1c(C(=O)c2ccccc2)c2ccccc2n1C(=O)c1ccccc1	> 100	> 100	> 100	> 100		> 100	> 100	> 100	> 100											
COC(=O)C(N)CCCC(N)C(=O)NC(C)C(=O)NC(CCC(=O)NCCCNc1ccc([N+](=O)[O-])c2[nH]c3ccccc3c(=O)c12)C(N)=O (stereo unspecified)	16.2	26.1	22.7	13.8	19.1	24.9	10.8	22	21.8											
Clc1cccc(N=C/C=C/Nc2cccc(Cl)c2)c1		> 100	59.9		96.2	45.4		29.6	25.2	39.9										
CCCC1C(C#N)(C#N)C(C#N)=C(N)C1(C)C(C)=O (stereo unspecified)	> 100	> 100	> 100	> 100	> 100		> 100		> 100	> 100										
CCCN(CCC)c1c([N+](=O)[O-])cc(C(=O)N(C)C)cc1[N+](=O)[O-]	30.7		> 100	> 100		> 100		> 100	> 100	86.8										
C/C(=C/c1c(C)[nH]c(=O)[nH]c1=O)C(=O)O		> 1380	1370	> 1380		> 1380	> 1380	> 1380	> 1380	> 1380		> 1380								
C=CCc1cccc2cc(C(=O)Nc3nc(C45CC6CC(CC(C6)C4)C5)cs3)c(=O)oc12	33.9	43.1	> 100	55	> 100	67.6		> 100	> 100	> 100										
O=C1C=C(NCCc2cc(Br)c(O)c(Br)c2)C(=O)c2[nH]cnc21	> 100	82.3	67.2	> 100	> 100	> 100	40	> 100	> 100											
Cc1ccc(NC(=O)CC(=O)N2N=C(c3ccccc3)C(N=Nc3ccc(S(=O)(=O)CCOS(=O)(=O)O)cc3)C2=O)cc1 (stereo unspecified)	> 100	> 100	> 100	> 100	> 100	> 100		> 100	> 100	> 100										
CC1(CO)C(=O)OC12CCCCC2 (stereo unspecified)		> 100		> 100		> 100	> 100	> 100	> 100	> 100										
COc1cc(C)cc(OC)c1/C=C/C(=O)O	> 100	> 100	> 100	> 100		87.6	> 100	> 100	> 100	> 100										
Cc1ccc(Nc2ccc(Nc3ccc(C)cc3S(=O)(=O)O)c3c2C(=O)c2ccccc2C3=O)c(S(=O)(=O)O)c1	> 100			> 100		> 100	> 100	> 100	> 100	> 100										
CCCCNCC(O)c1cc(-c2ccc(C(F)(F)F)cc2)nc(-c2ccc(C(F)(F)F)cc2)c1 (stereo unspecified)				3.89	3.65	3.66	3.67	3.81								1.97	1.89	2.08	2.02	1.98
CN(/N=C/c1ccc(Cl)c(Cl)c1)C1=NCCN1	> 100	62.6	> 100	> 100	> 100	> 100	35.4		75.2											
CCc1cc2c(oc3c4ccccc4ccc23)c(=O)[nH]1	> 10	> 10	> 10	> 10	> 10	> 10	> 10			> 10										
NC(CNc1ccc(O)cc1)C(=O)O (stereo unspecified)	> 100	> 100	> 100	> 100		> 100	49.4	> 100		95.7										
O=C(c1ccccc1)n1[nH]c(=O)n(-c2ccc(Cl)cc2)c1=O	> 100		> 100	> 100	> 100	> 100	> 100	> 100	> 100	> 100										
O=[N+]([O-])c1ccc(Cl)cc1N/N=C/c1cccs1	> 100			> 100	> 100	> 100	> 100	> 100	> 100	> 100										
